Experiments:
Assay in all cases: relative viability (nuclei count vs DMSO), 5 days (fraction); higher = more cells survive
[1] = compound: CCc1cnn2c(NCc3ccc[n+]([O-])c3)cc(N3CCCC[C@H]3CCO)nc12 [Dinaciclib] + CS(=O)(=O)CCNCc1ccc(-c2ccc3ncnc(Nc4ccc(OCc5cccc(F)c5)c(Cl)c4)c3c2)o1 [Lapatinib] (partner 2 µM)
Method in brief: (§1)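 For relative viability, nuclei counts in treated wells were divided by those in vehicle wells. Lung cancer cell lines had been pin-tool dosed in 1536-well plates the day after seeding and cultured for 5 days, then fixed and stained in one step (final 0.05% Triton X-100, 1% formaldehyde, 1 ug/ml Hoechst) and imaged at 4×. Doses were one drug alone or a fixed anchor-drug dose plus five library-drug doses (not always all listed) in √10 steps, and values are duplicate-plate medians.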

[2] = compound: CCc1cnn2c(NCc3ccc[n+]([O-])c3)cc(N3CCCC[C@H]3CCO)nc12 [Dinaciclib] + CS(=O)(=O)N1CCN(Cc2cc3nc(-c4cccc5[nH]ncc45)nc(N4CCOCC4)c3s2)CC1 [Pictilisib] (partner 1 µM)
Method in brief: as §1

[3] = compound: CCc1cnn2c(NCc3ccc[n+]([O-])c3)cc(N3CCCC[C@H]3CCO)nc12 [Dinaciclib] + CCNC(=O)c1noc(-c2cc(C(C)C)c(O)cc2O)c1-c1ccc(CN2CCOCC2)cc1 [Luminespib] (partner 0.01 µM)
Method in brief: as §1

[4] = compound: CCc1cnn2c(NCc3ccc[n+]([O-])c3)cc(N3CCCC[C@H]3CCO)nc12 [Dinaciclib] + CC(=O)c1c(C)c2cnc(Nc3ccc(N4CCNCC4)cn3)nc2n(C2CCCC2)c1=O [Palbociclib] (partner 0.5 µM)
Method in brief: as §1

[5] = compound: CCc1cnn2c(NCc3ccc[n+]([O-])c3)cc(N3CCCC[C@H]3CCO)nc12 [Dinaciclib] + CC(=O)Nc1cccc(-n2c(=O)n(C3CC3)c(=O)c3c(Nc4ccc(I)cc4F)n(C)c(=O)c(C)c32)c1 [Trametinib] (partner 0.02 µM)
Method in brief: as §1

| Cell Line | relative viability ([1]; first compound 0.009487 µM) | relative viability ([1]; first compound 0.03 µM) | relative viability ([1]; first compound 0.09487 µM) | relative viability ([1]; first compound 0.3 µM) | relative viability ([2]; first compound 0.009487 µM) | relative viability ([2]; first compound 0.03 µM) | relative viability ([2]; first compound 0.09487 µM) | relative viability ([2]; first compound 0.3 µM) | relative viability ([3]; first compound 0.009487 µM) | relative viability ([3]; first compound 0.03 µM) | relative viability ([3]; first compound 0.09487 µM) | relative viability ([3]; first compound 0.3 µM) | relative viability ([4]; first compound 0.009487 µM) | relative viability ([4]; first compound 0.03 µM) | relative viability ([4]; first compound 0.09487 µM) | relative viability ([4]; first compound 0.3 µM) | relative viability ([5]; first compound 0.009487 µM) | relative viability ([5]; first compound 0.03 µM) | relative viability ([5]; first compound 0.09487 µM) | relative viability ([5]; first compound 0.3 µM) |
| --- | --- | --- | --- | --- | --- | --- | --- | --- | --- | --- | --- | --- | --- | --- | --- | --- | --- | --- | --- | --- |
| NCI-H1755 | 1.05 | 0.829 | 0.163 | 0.184 | 0.387 | 0.132 | 0.127 | 0.143 | 0.395 | 0.624 | 0.147 | 0.14 | 0.423 | 0.316 | 0.223 | 0.238 | 0.786 | 0.46 | 0.225 | 0.202 |
| NCI-H1792 | 0.848 | 0.808 | 0.0608 | 0.0733 | 0.234 | 0.121 | 0.0539 | 0.0574 | 0.422 | 0.225 | 0.117 | 0.0889 | 0.677 | 0.365 | 0.217 | 0.152 | 0.432 | 0.361 | 0.0776 | 0.0462 |
| NCI-H1793 | 0.389 | 0.112 | 0.18 | 0.147 | 0.288 | 0.177 | 0.145 | 0.2 | 0.218 | 0.107 | 0.144 | 0.12 | 0.251 | 0.168 | 0.131 | 0.135 | 0.388 | 0.174 | 0.15 | 0.151 |
| NCI-H1915 | 0.715 | 0.134 | 0.102 | 0.111 | 0.658 | 0.158 | 0.121 | 0.102 | 0.292 | 0.142 | 0.0885 | 0.093 | 0.474 | 0.121 | 0.125 | 0.113 | 0.343 | 0.225 | 0.114 | 0.0978 |
| NCI-H1944 | 0.936 | 0.169 | 0.143 | 0.147 | 0.4 | 0.172 | 0.168 | 0.177 | 0.799 | 0.142 | 0.137 | 0.137 | 0.39 | 0.13 | 0.147 | 0.123 | 0.462 | 0.161 | 0.152 | 0.144 |
| NCI-H1975 | 0.561 | 0.129 | 0.107 | 0.133 | 0.166 | 0.0983 | 0.102 | 0.102 | 0.237 | 0.145 | 0.12 | 0.135 | 0.578 | 0.188 | 0.102 | 0.105 | 0.343 | 0.187 | 0.134 | 0.0985 |
| NCI-H1993 | 0.869 | 0.45 |  | 0.723 | 0.694 | 0.834 |  | 0.588 | 0.723 | 0.472 | 0.53 | 0.474 | 0.602 | 0.36 | 0.506 | 0.433 | 0.632 | 0.419 | 0.511 | 0.479 |
| NCI-H2009 | 0.493 | 0.108 | 0.101 | 0.0913 | 0.661 | 0.0836 | 0.0705 | 0.0666 | 0.649 | 0.0986 | 0.101 | 0.101 | 0.243 | 0.0729 | 0.0659 | 0.057 | 0.288 | 0.0748 | 0.0773 | 0.0564 |
| NCI-H2023 | 0.817 | 0.0669 | 0.0655 | 0.0585 | 0.26 | 0.0718 | 0.0607 | 0.0559 | 0.561 | 0.058 | 0.055 | 0.0469 | 0.301 | 0.0599 | 0.0471 | 0.063 | 0.382 | 0.078 | 0.0799 | 0.0821 |
| NCI-H2085 | 0.712 | 0.238 | 0.249 | 0.26 | 0.424 | 0.281 | 0.221 | 0.215 | 0.417 | 0.195 | 0.186 | 0.169 | 0.514 | 0.503 | 0.22 | 0.211 | 0.439 | 0.259 | 0.187 | 0.183 |
| NCI-H2087 | 0.828 | 0.168 | 0.15 | 0.136 | 0.643 | 0.143 | 0.165 | 0.151 | 0.189 | 0.107 | 0.0516 | 0.0567 | 0.22 | 0.086 | 0.0942 | 0.0781 | 0.143 | 0.11 | 0.101 | 0.107 |
| NCI-H2126 | 0.784 | 0.354 | 0.204 | 0.231 | 0.474 | 0.246 | 0.198 | 0.199 | 0.873 | 0.202 | 0.201 | 0.21 | 0.333 | 0.3 | 0.207 | 0.198 | 0.53 | 0.41 | 0.165 | 0.175 |
| NCI-H2170 | 0.273 | 0.197 | 0.186 | 0.175 | 0.27 | 0.151 | 0.163 | 0.196 | 0.608 | 0.142 | 0.142 | 0.146 | 0.387 | 0.122 | 0.103 | 0.117 | 0.885 | 0.147 | 0.133 | 0.131 |
| NCI-H2228 | 0.764 | 0.112 | 0.0806 | 0.11 | 0.484 | 0.0919 | 0.0936 | 0.1 | 0.147 | 0.127 | 0.116 | 0.0939 | 0.651 | 0.115 | 0.0872 | 0.0982 | 0.496 | 0.11 | 0.0915 | 0.116 |
| NCI-H2347 | 0.959 | 0.637 | 0.214 | 0.259 | 0.455 | 0.292 | 0.327 | 0.179 | 0.249 | 0.12 | 0.105 | 0.118 | 0.506 | 0.321 | 0.21 | 0.212 | 0.301 | 0.247 | 0.159 | 0.154 |
| NCI-H2405 | 0.957 | 0.197 | 0.207 | 0.183 | 0.572 | 0.226 | 0.227 | 0.177 | 0.688 | 0.231 | 0.193 | 0.247 | 0.542 | 0.22 | 0.199 | 0.188 | 0.676 | 0.236 | 0.233 | 0.203 |

From the supplement of paper PMC10307832
